Measurements from patent US20250221963A1 (GH RESEARCH IRELAND LIMITED, priority 2022, published 2025).

What was measured:
[1] = system: human plasma protein; experiment: Plasma binding of 5-MIAA; format: in vitro ADME
Method: Binding to human plasma protein was determined. Reported are the unbound fraction (fu) for three replicates as well as the mean unbound fraction, the standard deviation and the mean % recovery (Table 8).

[2] = system: human hepatocytes; experiment: In vitro metabolism identification study in human hepatocytes; conditions: for Relative Proportion of compounds identified: 5-MeO-DMT free base incubated up to 120 minutes at 10 μM; for Presence in subsequent assays: metabolites of 5-MeO-DMT
Method: For incubations with cryopreserved hepatocytes, the 2 mM stock solution was diluted with Leibovitz L-15 medium to a concentration of 20 μM or 2 μM. An aliquot (250 μL) of the 20 μM and 2 μM test substance formulations was added to each hepatocyte incubation sample (250 μL), as appropriate, so that the final test substance concentration in the incubations was 10 μM or 1 μM, respectively, and incubations contained less than 1% (v/v) solvent.
Incubations were performed at ca. 37° C. in a shaking water bath (total incubation volume 0.5 mL). For 1 μM, incubations were terminated after 0, 5, 10, 20, 30, 60 and 120 minutes, by the addition of ice-cold acetonitrile (0.5 mL).
The samples were vortex mixed and centrifuged at ca 13,000 rpm for 10 minutes at room temperature. Following centrifugation, the protein-free supernatants were removed for analysis.
Blank control incubations were carried out with Leibovitz L-15 medium in place of the test substance. No cells control samples were performed with Leibovitz L-15 medium in place of hepatocytes. Aliquots of the blank control samples were taken at 120 minutes, while no cells control samples were taken at 0, 30 and 120 for 1 μM incubations and at 0 and 120 minutes for 10 μM incubations.
All 1 μM incubations were performed in duplicate, while all 10 μM incubations were performed in singlet. All samples were stored at −80° C. (nominal) prior to analysis.
Prior to sample analysis a 100 μL aliquot of each sample was evaporated to near dryness under a steady stream of nitrogen at room temperature, and subsequently reconstituted in 50 μL of mobile phase A (0.1% formic acid in water). Each sample (0, 30 and 120-minute, 10 μM) was analysed using accurate mass LC-MS to determine relative levels of parent compound at each time-point, and determine the profile of metabolites formed. Appropriate blank and control samples were also analysed. The 10 and 60-minute, 10 μM incubation samples were not analysed and were stored at −80° C. (nominal).
Data were interrogated for the presence of metabolites by comparison of retention times with the test substance reference standard and based on the accurate masses of potential metabolites using screening software (UNIFI version 1.9.4), and user defined search parameters. To confirm a suspected metabolite, the measured accurate mass of the peak detected in the sample used for structural elucidation had to be within 5 ppm of the theoretical mass in order to confirm the molecular formula.

[3] = system: human hepatocytes; experiment: Metabolic stability in Hμrel co-culture assay with human hepatocytes; conditions: for Disappearance with stromal cell controls: stromal cells
[4] = Pharmacokinetics of 5-MeO-DMT and bufotenine after inhalation; format: in vivo, human
Method: Blood samples were obtained at 1; 2; 4; 7; 10; 15; 20; 30; 45 min and 1; 1.5; 2; 3; 4 hours after administration.
PK parameters were generated by algebraic analysis of the concentration versus time plots for each individual. The analysis was carried out using the software Phoenix WinNonlin 6.3.

Compound: CC(=O)CC(c1ccccc1)c1c(O)c2ccccc2oc1=O (stereo not shown) [Warfarin, reference compound]
- Unbound fraction (fu) ([1]; Replicate 1): 0.0418
- Unbound fraction (fu) ([1]; Replicate 2): 0.0356
- Unbound fraction (fu) ([1]; Replicate 3): 0.0358

Compound: COc1ccc2[nH]cc(CC(=O)O)c2c1 [5-MIAA, 5-methoxyindole-3-acetic acid]
- Relative Proportion of compounds identified [2]: 61%
- Presence in subsequent assays [2]: predominant metabolite
- Plasma binding (mean fraction unbound) [1]: ~50%
- Unbound fraction (fu) ([1]; Replicate 1): 0.499
- Unbound fraction (fu) ([1]; Replicate 2): 0.462
- Unbound fraction (fu) ([1]; Replicate 3): 0.544
- Time until all traces are removed from circulation for urinary excretion ([1]; assuming glomerular filtration rate of 90-120 ml/min): 1 to 2 h
- Mean fu ([1]; three replicates): 0.502
- Half-life ([3]; human hepatocytes, 1 μM): 15 400 min
- In vitro intrinsic clearance ([3]; human hepatocytes, 1 μM): 0.15 μl/min/million cells
- Disappearance with stromal cell controls [3]: no disappearance

Compound: CN(C)CCc1c[nH]c2ccc(O)cc12 [bufotenine]
- Relative Proportion of compounds identified [2]: 5%
- Detection in human serum ([4]; after administration of 5-MeO-DMT): barely detected
- Bufotenine blood concentration ([4]; from 15 min onwards after 5-MeO-DMT, LLOQ): < 25 pg/mL

Compound: COc1ccc2[nH]cc(CCO)c2c1 [5-methoxytryptophol, 5-Methoxyindole-3-ethanol]
- Relative Proportion of compounds identified [2]: 25%
- Presence in subsequent assays [2]: repeatedly failed to detect the presence
- Time to complete disappearance ([3]; in the presence of hepatocytes): 24 h
- Disappearance with stromal cell controls [3]: no disappearance

Compound: COc1ccc2[nH]cc(CC[N+](C)(C)[O-])c2c1 [5-MeO-DMT-N-oxide]
- Relative Proportion of compounds identified [2]: 1%
